Assay results taken from ChEMBL document CHEMBL3045915, “Microwave-assisted, one-pot syntheses and fungicidal activity of polyfluorinated 2-benzylthiobenzothiazoles” (2006).

How the values were obtained:
Type in all cases: functional
Colletotrichum gossypii = assay: Fungicidal activity against Colletotrichum gossypii assessed as inhibition of fungal growth at 50 ug/ml after 48 hr
Dothiorella gregaria = assay: Fungicidal activity against Dothiorella gregaria assessed as inhibition of fungal growth at 50 ug/ml after 48 hr
Botrytis cinerea = assay: Fungicidal activity against Botryotinia fuckeliana Pers assessed as inhibition of fungal growth at 50 ug/ml after 48 hr
Rhizoctonia solani = assay: Fungicidal activity against Rhizoctonia solani assessed as inhibition of fungal growth at 50 ug/ml after 48 hr

Row | SMILES | inhibition at 50 µg/mL (Colletotrichum gossypii) | inhibition at 50 µg/mL (Dothiorella gregaria) | inhibition at 50 µg/mL (Botrytis cinerea) | inhibition at 50 µg/mL (Rhizoctonia solani)
1 | Fc1ccccc1CSc1nc2c(F)cccc2s1 | 67% | 78% | 81% | 82%
2 | Fc1cccc(F)c1CSc1nc2c(F)cccc2s1 | 52% | 63% | 78% | 74%
3 | Fc1ccc(CSc2nc3c(F)cccc3s2)cc1F | 78% | 89% | 97% | 92%
4 | Fc1ccc2sc(SCc3ccccc3F)nc2c1 | 67% | 81% | 83% | 82%
5 | Fc1ccc2sc(SCc3c(F)cccc3F)nc2c1 | 56% | 74% | 78% | 80%
6 | Fc1ccc2sc(SCc3ccc(F)c(F)c3)nc2c1 | 74% | 78% | 69% | 86%
7 | Fc1ccccc1CSc1nc2ccc(F)c(F)c2s1 | 74% | 81% | 86% | 84%
8 | Fc1cccc(F)c1CSc1nc2ccc(F)c(F)c2s1 | 63% | 81% | 69% | 82%
9 | Fc1ccc(CSc2nc3ccc(F)c(F)c3s2)cc1F | 80% | 85% | 72% | 85%
10 | Fc1ccccc1CSc1nc2c(Cl)cc(C(F)(F)F)cc2s1 | 70% | 70% | 83% | 83%
11 | Fc1cccc(F)c1CSc1nc2c(Cl)cc(C(F)(F)F)cc2s1 | 44% | 62% | 67% | 69%
12 | Fc1ccc(CSc2nc3c(Cl)cc(C(F)(F)F)cc3s2)cc1F | 37% | 35% | 67% | 40%
13 | CC(C)(C)C(=O)C(Oc1ccc(Cl)cc1)n1cncn1 (configuration not stated) [TRIADIMEFON] | 95% | 61% | 84% | 90%
